Converted amounts (≈) assume the structure as drawn. Structures can show the parent of a compound that is named as a salt.
Key:
[1] = Pharmacokinetic analysis of Compound 1 and its salts after oral capsule administration (Example 4); format: in vivo, cynomolgus monkeys; details: single PO capsule, 30 mg/kg
Experimental: A pharmacokinetic analysis was performed comparing administration of Compound 1 with certain salts of Compound 1 after oral (PO) administration in 3 male cynomolgus monkeys. The subjects received a single PO oral gavage of active pharmaceutical ingredient (API) (e.g., Compound 1 fumarate, Compound 1 sulfate, Compound 1 hydrochloride, Compound 1 phosphate, Compound 1 tosylate, Compound 1 malonate, Compound 1 maleate, or Compound 1 free base) in a capsule at a dose of 30 mg/kg. Following dose administration, the animals were flushed with approximately 10 milliliters of tap water to ensure all API was administered. Animals were observed twice daily and at sample collection time-points for any abnormal clinical and behavioral signs. Body weights were taken prior to dosing and weekly thereafter until study termination. Blood samples (0.5 mL) were collected pre-dose, 15 minutes, 30 minutes, and 1, 2, 4, 6, 8, 10, 12, and 24 hours post-dose. Each blood sample was collected from the monkey's femoral, saphenous or other available vein via direct venipuncture, placed into a polypropylene tube containing K2EDTA as the anticoagulant, and gently inverted several times to mix. The blood samples were kept on wet ice until centrifugation. Blood was centrifuged within 10 minutes of collection. The samples were centrifuged at a temperature of 4° C., at 3,000 g, for 5 minutes. The resulting plasma (˜0.25 mL) was divided into two equal aliquots (125 μL each) into polypropylene tubes, designated as Set A and Set B, after centrifugation. Plasma samples designated for certain metabolites (Set A) were treated with 12.5 μL of 2 M ascorbic acid (plasma: ascorbic acid=[…], v:v) prepared beforehand by combining 0.352 g of ascorbic acid into 1 mL of sterile water in a glass vial and mixing thoroughly. […] Once plasma was prepared, the samples were snap frozen on dry ice. All plasma samples were stored frozen below −70° C. until analyzed.

[2] = Intrinsic dissolution rate and solubility in 0.1 N HCl with 1% Tween 80 (USP <1087>); format: physicochemical; details: 0.1 N HCl with 1% Tween 80, 37° C.; for Solubility, time point 15 min / Solubility, time point 30 min / Solubility, time point 45 min / Solubility, time point 60 min / Solubility, time point 75 min / Solubility, time point 90 min / Solubility, time point 105 min / Solubility, time point 120 min: 500 mL, pellet about 75 mg; for Intrinsic Dissolution Rate IDR: paddle 100 rpm, die surface 0.5 cm^2; for Solubility, Cumulative: sum of the 15-120 min time points
Experimental: The intrinsic dissolution rate was determined by forming compacted pellets of approximately 75 mg of API using a compression force of 1200 pounds of force, and each pellet (die surface area: 0.5 cm^2) was immersed into a flat bottom vessel containing 500 mL of medium (aqueous 0.1 N HCl with 1% Tween 80 (polyoxyethylene (20) sorbitan monooleate)), using a Distek 2100A dissolution bath, and Distek Circulator/heater (set to 37° C.), with a paddle speed of 100 rpm. An aliquot of the sample (1 mL) was pulled from dissolution media at 15, 30, 45, 60, 75, 90, 105, and 120 minutes, filtered, and analyzed by HPLC. The slope of the dissolution profile corresponded to an intrinsic dissolution rate of hemi-fumarate salt Form B of 6.2 μg/(min·cm^2) as compared to 8.9 μg/(min·cm^2) for Compound 1 (free base). Determination of intrinsic dissolution rate (IDR) was performed for Compound 1 and seven different salts of Compound 1 according to USP <1087> in 0.1 N hydrochloric acid with 1% Tween 80 (Polyoxyethylene […] sorbitan monooleate). Compacted pellets containing approximately 75 mg API were prepared using a compression force of 1200 pounds of force, and each pellet (die surface area: 0.5 cm^2) was immersed into a flat bottom vessel containing 500 mL of medium, using a Distek 2100A dissolution bath, and Distek Circulator/heater (set to 37° C.), with a paddle speed of 100 rpm. An aliquot of the sample (1 mL) was pulled from dissolution media at 15, 30, 45, 60, 75, 90, 105, and 120 minutes, filtered, and analyzed by HPLC. HPLC for IDR and solid-state stability analyses were conducted with an Agilent 1260 Infinity system equipped with a G1311B Quad pump, […] Autosampler, G1330B auto-sampler thermostat, G1316A Thermostatted Column Compartment with a column switch valve, and […] diode array detector.

[3] = 3 male cynomolgus monkeys, plasma Compound 1
[4] = 3 male cynomolgus monkeys, plasma Compound 1, listed as Free base
[5] = listed as Compound 1 (parent free base)

SMILES | Cmax [1, 3] [ng/mL] | AUClast [1, 3] [ng·h/mL] | Tmax [1, 3] [h] | Solubility, time point 15 min [2] [µg/mL] | Solubility, time point 30 min [2] [µg/mL] | Solubility, time point 45 min [2] [µg/mL] | Solubility, time point 60 min [2] [µg/mL] | Solubility, time point 75 min [2] [µg/mL] | Solubility, time point 90 min [2] [µg/mL] | Solubility, time point 105 min [2] [µg/mL] | Solubility, time point 120 min [2] [µg/mL] | Intrinsic Dissolution Rate IDR [2] | Solubility, Cumulative [2] [µg/mL] | also measured
[2H]C([2H])([2H])C(c1cc2nnc(-c3cc(F)ccc3F)n2nc1OCc1ncnn1C)(C([2H])([2H])[2H])C([2H])([2H])[2H] [Compound 1, 3-(2,5-difluorophenyl)-7-[1,1-di(methyl-d3)ethyl-2,2,2-d3]-6-[(1-methyl-1H-1,2,4-triazol-5-yl)methoxy]-1,2,4-triazolo[4,3-b]pyridazine] | 1550 | – | – | – | – | – | – | – | – | – | – | – | – | AUClast [1, 4]: 25463 ng·h/mL; Tmax [1, 4]: 4.0 h; AUClast ([1]; male cynomolgus monkeys): 25463 ng·h/mL; Solubility, time point 15 min [2, 5]: 0.413 µg/mL (≈ 1.01 µM); Solubility, time point 30 min [2, 5]: 0.464 µg/mL (≈ 1.14 µM); Solubility, time point 45 min [2, 5]: 0.641 µg/mL (≈ 1.57 µM); Solubility, time point 60 min [2, 5]: 0.823 µg/mL (≈ 2.01 µM); Solubility, time point 75 min [2, 5]: 0.89 µg/mL (≈ 2.18 µM); Solubility, time point 90 min [2, 5]: 1.026 µg/mL (≈ 2.51 µM); Solubility, time point 105 min [2, 5]: 1.23 µg/mL (≈ 3.01 µM); Solubility, time point 120 min [2, 5]: 1.31 µg/mL (≈ 3.21 µM); Intrinsic Dissolution Rate IDR ([2]; listed as Compound 1 (free base)): 8.9 μg/(min · cm^2); Intrinsic Dissolution Rate IDR [2, 5]: 8.9 μg/(min · cm^2); Solubility, Cumulative [2, 5]: 6.797 µg/mL (≈ 16.6 µM)
[2H]C([2H])([2H])C(c1cc2nnc(-c3cc(F)ccc3F)n2nc1OCc1ncnn1C)(C([2H])([2H])[2H])C([2H])([2H])[2H] [Maleate Salt, 3-(2,5-difluorophenyl)-7-[1,1-di(methyl-d3)ethyl-2,2,2-d3]-6-[(1-methyl-1H-1,2,4-triazol-5-yl)methoxy]-1,2,4-triazolo[4,3-b]pyridazine] | 1388 | 20575 | 12.0 | 0.245 | 0.36 | 0.462 | 0.567 | 0.681 | 0.791 | 0.941 | 1.01 | 7.3 μg/(min · cm^2) | 5.057 | –
[2H]C([2H])([2H])C(c1cc2nnc(-c3cc(F)ccc3F)n2nc1OCc1ncnn1C)(C([2H])([2H])[2H])C([2H])([2H])[2H] [Malonate Salt, 3-(2,5-difluorophenyl)-7-[1,1-di(methyl-d3)ethyl-2,2,2-d3]-6-[(1-methyl-1H-1,2,4-triazol-5-yl)methoxy]-1,2,4-triazolo[4,3-b]pyridazine] | 2010 | 24694 | 4.7 | 0.352 | 0.454 | 0.579 | 0.68 | 0.757 | 0.87 | 1.04 | 1.05 | 6.9 μg/(min · cm^2) | 5.782 | –
[2H]C([2H])([2H])C(c1cc2nnc(-c3cc(F)ccc3F)n2nc1OCc1ncnn1C)(C([2H])([2H])[2H])C([2H])([2H])[2H] [Phosphate Salt, 3-(2,5-difluorophenyl)-7-[1,1-di(methyl-d3)ethyl-2,2,2-d3]-6-[(1-methyl-1H-1,2,4-triazol-5-yl)methoxy]-1,2,4-triazolo[4,3-b]pyridazine] | 1096 | 18378 | 5.3 | 0.358 | 0.375 | 0.449 | 0.543 | 0.615 | 0.769 | 0.912 | 0.11 | 7.0 μg/(min · cm^2) | 4.131 | –
[2H]C([2H])([2H])C(c1cc2nnc(-c3cc(F)ccc3F)n2nc1OCc1ncnn1C)(C([2H])([2H])[2H])C([2H])([2H])[2H] [Sulfate Salt, 3-(2,5-difluorophenyl)-7-[1,1-di(methyl-d3)ethyl-2,2,2-d3]-6-[(1-methyl-1H-1,2,4-triazol-5-yl)methoxy]-1,2,4-triazolo[4,3-b]pyridazine] | 1151 | 18231 | 4.0 | 0.316 | 0.364 | 0.453 | 0.569 | 0.668 | 0.772 | 0.944 | 1.06 | 7.1 μg/(min · cm^2) | 5.146 | –
